In patent publication US11917996B2, “Herbicidal compositions for animal grazelands and methods for applying the same” (DISCOVERY PURCHASER CORPORATION, priority 2018, dated 2024):

Experiments:
[1] = Dairy cow feeding study: total indaziflam residue in milk and tissues after 29 consecutive days of dosing; format: in vivo, lactating Holstein dairy cows (Bos taurus)
Procedure: A feeding study was conducted to measure total indaziflam residue in milk, cream (milk fat), skim milk (whey), mesenteric (omental) fat, perirenal fat, subcutaneous fat, liver, kidney, muscle and excrement (feces or faeces) from lactating Holstein dairy cows (Bos taurus) following 29 consecutive days of dosing with indaziflam. The base daily dose of indaziflam was calculated to be 31 mg/kg dry matter feed. Four groups of cows were fed at 0 (control—two cows), 31 (1×—three cows), […] (3×—three cows) and 311 (10×—seven cows) mg/kg dry matter feed.
Milk was collected twice daily from all dose groups, morning and evening. Doses were administered after the morning milking. Milk was subsampled for analysis from the controls and all dose groups on study days 0, 2, 4, 7, 10, 14, 17, 21, 25, and 28. […]
The remaining cows (one control and four from the 10× dose level) entered the depuration phase of the study. […] Milk, tissues and excrement from the cows sacrificed at each interval were analyzed to monitor the decline of the residues of indaziflam and its metabolites. […]
The individual analyte derived residues were converted to indaziflam parent equivalents and summed to give a total indaziflam residue. The limit of quantitation (LOQ) for total indaziflam residue was 0.05 ppm for fat, kidney, muscle and liver. […]

[2] = Ruminant metabolism studies with 14C-labelled indaziflam; format: in vivo, ruminants; details: [triazine-2,4-14C] and [indane-3-14C] indaziflam
Text: Ruminant metabolism studies have been conducted with both [triazine-2,4-^14C] indaziflam and [indane-3-^14C] indaziflam according to current EPA guidelines. Accumulation into the edible tissues was low and the metabolism of indaziflam in ruminants is well understood.

[3] = Human safety risk assessment (aggregate dietary and non-dietary exposure, current EPA practice); design: species or system US Population
Text: Human safety risk assessments have been conducted, using current EPA practice, for all the current and proposed new uses of indaziflam. Chronic aggregate dietary exposure (food and water) will utilize less than 4% of the cPAD for the US Population. Acute aggregate dietary exposure (food and water) for the U.S. population, utilizes 7% of the aPAD.

[4] = system: cheatgrass; assay: Pre-emergence control of cheatgrass; format: in vivo, Bromus tectorum
Text: (§1) This provides land managers with a new opportunity to start the process of eliminating the annual grass seed bank. […] This makes indaziflam an effective tool to start the process of depleting the invasive annual grass soil seed bank. Furthermore, providing long-term control of annual grasses with indaziflam results in both reduced thatch that serves as fuel for highly destructive wildfires, and the effective creation of firebreaks that protect communities of desirable perennials. As a result, native ecosystems are promoted, allowing for increased habitat for animal species of concern including wildlife and pollinators.

[5] = system: medusahead; assay: Pre-emergence control of medusahead; format: in vivo, Taeniatherum caput-medusae
Text: as §1

[6] = system: ventenata; assay: Pre-emergence control of ventenata; format: in vivo, Ventenata dubia
Text: as §1

[7] = pH 7; cited from earlier work

In the case of Cc1ccc2c(c1)[C@H](Nc1nc(N)nc(C(C)F)n1)[C@@H](C)C2 (mixture of isomers) [indaziflam, N2-[(1R,2S)-2,3-dihydro-2,6-dimethyl-1H-inden-1-yl]-6-[(1RS)-1-fluoroethyl]-1,3,5-triazine-2,4-diamine], the “Average total indaziflam residues in muscle” value ([1]; 1× rate, Day 29, LOQ 0.05 ppm) is reported as “< LOQ”, the “Residues in all tissues and milk in the depuration phase” value ([1]; 10× dose cows, 3 to 21 days after end of dosing) is reported as “declined rapidly” and the “Accumulation into the edible tissues” value [2] is reported as “low”. For the same compound, the “Non-dietary and aggregate margins of exposure (food, drinking water, and non-dietary)” value [3] was “above the Level of Concern”, the “Acute aggregate dietary exposure (food and water), utilization of the aPAD” value ([3]; U.S. population) was 7 % of the aPAD and the “Chronic aggregate dietary exposure (food and water), utilization of the cPAD” value ([3]; US Population, all current and proposed new uses) was “less than 4 % of the cPAD”. The “Pre-emergence effectiveness compared with imazapic” value ([4]; cheatgrass) was “significantly more effective”, the “Long-term control of cheatgrass” value ([4]; single application) was “at least three years” and the “Pre-emergence effectiveness compared with imazapic” value [5] was “significantly more effective”. For the same compound, the “Pre-emergence effectiveness compared with imazapic” value [6] was “significantly more effective” and the “log Kow” value [7] was 2.8.
